*1 amine or outer side, *2 acyl side, *3 side chain or, on linkers, in order; H or OH if unused. Where a SMILES comes first, the peptide text is derived from it. Bridges are numbered along the chain shown (N, C = ends). [ ]: non-standard residue; d: D form. The star is where a group is joined. Ethylenediamine = C(CN[*:2])N[*:1]; Hyp = O=C(O)[C@@H]1C[C@@H](O)CN1; NMeF = CN[C@@H](Cc1ccccc1)C(=O)O; Decanoyl = CCCCCCCCCC(=O)*; NMeA = CN[C@@H](C)C(=O)O; Sar = CNCC(=O)O
Columns and labels:
[1] = system: influenza virus A/Nagasaki/HA-58/2009 (H1N1); format: cell-based
[2] = system: influenza virus A/Puerto Rico/8/34 (H1N1); format: cell-based
[3] = system: influenza virus A/Duck/Pennsylvania/84 (H5N2); format: cell-based
[4] = system: influenza virus A/Puerto Rico/8/34 (H1N1); parameters: species or system BALB/cA Jcl [SPF] mice; conditions: mouse

In the case of `CCCCCCCCCC(=O)NCCNC(=O)[C@@H]1CSCC(=O)N[C@@H](Cc2c[nH]c3ccccc23)C(=O)N[C@@H]([C@@H](C)O)C(=O)N(C)CC(=O)N[C@@H](CC(=O)O)C(=O)N(C)[C@@H](Cc2ccccc2)C(=O)N(C)[C@@H](Cc2ccccc2)C(=O)N[C@@H](C)C(=O)N(C)[C@@H](C)C(=O)N[C@@H](Cc2cnc[nH]2)C(=O)N[C@@H](Cc2ccc(O)cc2)C(=O)N[C@@H]([C@@H](C)O)C(=O)N[C@@H](C(C)C)C(=O)N2C[C@H](O)C[C@H]2C(=O)N[C@@H](C)C(=O)N1` [HA152] ({CH2CO}-WT[Sar]D[NMeF][NMeF]A[NMeA]HYTV[Hyp]AC-{Ethylenediamine-Decanoyl}; thioether N-15), the “inhibition of cell death in low concentration range” value (“inhibition of cell death” for short) [1] is reported as “remarkable inhibition of cell death”, the “inhibition of cell death” value [2] is reported as “remarkable inhibition of cell death” and the “inhibition of cell death” value [3] is reported as “remarkable inhibition of cell death”. The “in vivo anti-virus activity compared to peramivir” value [4] was “comparable or superior to peramivir” and the survival rate ([4]; in vivo, iv) was 60%.

— patent US12351652B2, “Hemagglutinin-binding peptide” (priority 2019, dated 2025)
